Tests used:
[1] = target: Activin receptor type-2B (Homo sapiens) (UniProt Q13705); details: Compound concentration 1000.0 nM
[2] = target: Serine/threonine-protein kinase B-raf (Homo sapiens) (UniProt P15056); details: Compound concentration 1000.0 nM
[3] = target: Calcium/calmodulin-dependent protein kinase kinase 2 (Homo sapiens) (UniProt Q96RR4); details: Compound concentration 1000.0 nM
[4] = target: Cyclin-dependent kinase 11B (Homo sapiens) (UniProt P21127); details: Compound concentration 1000.0 nM
[5] = target: Cyclin-dependent kinase 4 (Homo sapiens) (UniProt P11802); details: Compound concentration 1000.0 nM
[6] = target: Cyclin-dependent kinase 8 (Homo sapiens) (UniProt P49336); details: Compound concentration 1000.0 nM
Chain of Cyclin-dependent kinase 8 (Homo sapiens) (P49336 whole entry): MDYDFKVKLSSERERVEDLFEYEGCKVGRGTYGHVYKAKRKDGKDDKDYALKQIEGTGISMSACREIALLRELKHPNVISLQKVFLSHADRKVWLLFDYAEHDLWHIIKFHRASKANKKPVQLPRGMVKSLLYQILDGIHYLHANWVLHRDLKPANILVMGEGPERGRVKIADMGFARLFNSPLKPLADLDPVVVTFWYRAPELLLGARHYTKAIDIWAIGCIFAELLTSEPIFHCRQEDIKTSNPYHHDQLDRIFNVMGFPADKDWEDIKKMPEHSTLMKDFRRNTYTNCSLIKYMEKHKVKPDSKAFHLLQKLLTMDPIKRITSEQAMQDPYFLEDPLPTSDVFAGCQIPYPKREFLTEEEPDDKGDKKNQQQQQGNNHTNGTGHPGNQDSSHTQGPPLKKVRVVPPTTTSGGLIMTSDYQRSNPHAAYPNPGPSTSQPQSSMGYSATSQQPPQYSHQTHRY

[7] = target: Serine/threonine-protein kinase Chk1 (Homo sapiens) (UniProt O14757); details: Compound concentration 1000.0 nM
[8] = target: Casein kinase I isoform gamma-1 (Homo sapiens) (UniProt Q9HCP0); details: Compound concentration 1000.0 nM
[9] = target: Casein kinase I isoform gamma-2 (Homo sapiens) (UniProt P78368); details: Compound concentration 1000.0 nM
Chain of Casein kinase I isoform gamma-2 (Homo sapiens) (P78368 whole entry, looked up, canonical isoform): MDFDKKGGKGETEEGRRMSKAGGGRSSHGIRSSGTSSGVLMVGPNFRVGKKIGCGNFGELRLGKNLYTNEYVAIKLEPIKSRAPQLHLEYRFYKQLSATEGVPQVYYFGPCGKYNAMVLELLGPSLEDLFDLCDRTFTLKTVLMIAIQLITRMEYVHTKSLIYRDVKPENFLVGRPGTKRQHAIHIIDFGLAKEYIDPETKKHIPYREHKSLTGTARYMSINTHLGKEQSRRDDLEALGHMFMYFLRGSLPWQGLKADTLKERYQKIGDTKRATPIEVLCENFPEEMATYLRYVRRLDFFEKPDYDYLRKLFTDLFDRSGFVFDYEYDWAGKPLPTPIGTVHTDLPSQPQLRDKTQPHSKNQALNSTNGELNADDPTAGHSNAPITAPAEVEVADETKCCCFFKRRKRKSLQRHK

[10] = target: Mitogen-activated protein kinase 7 (Homo sapiens) (UniProt Q13164); details: Compound concentration 1000.0 nM
[11] = target: Vascular endothelial growth factor receptor 1 (Homo sapiens) (UniProt P17948); details: Compound concentration 1000.0 nM
[12] = system: Receptor-type tyrosine-protein kinase FLT3 (Homo sapiens), P36888 [UNDEFINED MUTATION]; details: Compound concentration 1000.0 nM
[13] = target: Rhodopsin kinase GRK1 (Homo sapiens) (UniProt Q15835); details: Compound concentration 1000.0 nM
[14] = target: Tyrosine-protein kinase HCK (Homo sapiens) (UniProt P08631); details: Compound concentration 1000.0 nM
[15] = target: Insulin receptor-related protein (Homo sapiens) (UniProt P14616); details: Compound concentration 1000.0 nM
[16] = target: Tyrosine-protein kinase JAK1 (Homo sapiens) (UniProt P23458); details: Compound concentration 1000.0 nM
[17] = target: Mitogen-activated protein kinase kinase kinase 1 (Homo sapiens) (UniProt Q13233); details: Compound concentration 1000.0 nM
[18] = target: Mitogen-activated protein kinase kinase kinase 2 (Homo sapiens) (UniProt Q9Y2U5); details: Compound concentration 1000.0 nM
[19] = target: Mitogen-activated protein kinase kinase kinase kinase 4 (Homo sapiens) (UniProt O95819); details: Compound concentration 1000.0 nM
[20] = target: Serine/threonine-protein kinase MARK1 (Homo sapiens) (UniProt Q9P0L2); details: Compound concentration 1000.0 nM
[21] = target: MAP/microtubule affinity-regulating kinase 3 (Homo sapiens) (UniProt P27448); details: Compound concentration 1000.0 nM
[22] = target: Dual specificity mitogen-activated protein kinase kinase 4 (Homo sapiens) (UniProt P45985); details: Compound concentration 1000.0 nM
[23] = target: Dual specificity mitogen-activated protein kinase kinase 6 (Homo sapiens) (UniProt P52564); details: Compound concentration 1000.0 nM
[24] = system: Hepatocyte growth factor receptor (Homo sapiens), P08581 [M1250T]; details: Compound concentration 1000.0 nM
[25] = system: Hepatocyte growth factor receptor (Homo sapiens), P08581 [Y1235D]; details: Compound concentration 1000.0 nM
[26] = target: Myosin light chain kinase, smooth muscle (Homo sapiens) (UniProt Q15746); details: Compound concentration 1000.0 nM
Chain of Myosin light chain kinase, smooth muscle (Homo sapiens) (Q15746 whole entry): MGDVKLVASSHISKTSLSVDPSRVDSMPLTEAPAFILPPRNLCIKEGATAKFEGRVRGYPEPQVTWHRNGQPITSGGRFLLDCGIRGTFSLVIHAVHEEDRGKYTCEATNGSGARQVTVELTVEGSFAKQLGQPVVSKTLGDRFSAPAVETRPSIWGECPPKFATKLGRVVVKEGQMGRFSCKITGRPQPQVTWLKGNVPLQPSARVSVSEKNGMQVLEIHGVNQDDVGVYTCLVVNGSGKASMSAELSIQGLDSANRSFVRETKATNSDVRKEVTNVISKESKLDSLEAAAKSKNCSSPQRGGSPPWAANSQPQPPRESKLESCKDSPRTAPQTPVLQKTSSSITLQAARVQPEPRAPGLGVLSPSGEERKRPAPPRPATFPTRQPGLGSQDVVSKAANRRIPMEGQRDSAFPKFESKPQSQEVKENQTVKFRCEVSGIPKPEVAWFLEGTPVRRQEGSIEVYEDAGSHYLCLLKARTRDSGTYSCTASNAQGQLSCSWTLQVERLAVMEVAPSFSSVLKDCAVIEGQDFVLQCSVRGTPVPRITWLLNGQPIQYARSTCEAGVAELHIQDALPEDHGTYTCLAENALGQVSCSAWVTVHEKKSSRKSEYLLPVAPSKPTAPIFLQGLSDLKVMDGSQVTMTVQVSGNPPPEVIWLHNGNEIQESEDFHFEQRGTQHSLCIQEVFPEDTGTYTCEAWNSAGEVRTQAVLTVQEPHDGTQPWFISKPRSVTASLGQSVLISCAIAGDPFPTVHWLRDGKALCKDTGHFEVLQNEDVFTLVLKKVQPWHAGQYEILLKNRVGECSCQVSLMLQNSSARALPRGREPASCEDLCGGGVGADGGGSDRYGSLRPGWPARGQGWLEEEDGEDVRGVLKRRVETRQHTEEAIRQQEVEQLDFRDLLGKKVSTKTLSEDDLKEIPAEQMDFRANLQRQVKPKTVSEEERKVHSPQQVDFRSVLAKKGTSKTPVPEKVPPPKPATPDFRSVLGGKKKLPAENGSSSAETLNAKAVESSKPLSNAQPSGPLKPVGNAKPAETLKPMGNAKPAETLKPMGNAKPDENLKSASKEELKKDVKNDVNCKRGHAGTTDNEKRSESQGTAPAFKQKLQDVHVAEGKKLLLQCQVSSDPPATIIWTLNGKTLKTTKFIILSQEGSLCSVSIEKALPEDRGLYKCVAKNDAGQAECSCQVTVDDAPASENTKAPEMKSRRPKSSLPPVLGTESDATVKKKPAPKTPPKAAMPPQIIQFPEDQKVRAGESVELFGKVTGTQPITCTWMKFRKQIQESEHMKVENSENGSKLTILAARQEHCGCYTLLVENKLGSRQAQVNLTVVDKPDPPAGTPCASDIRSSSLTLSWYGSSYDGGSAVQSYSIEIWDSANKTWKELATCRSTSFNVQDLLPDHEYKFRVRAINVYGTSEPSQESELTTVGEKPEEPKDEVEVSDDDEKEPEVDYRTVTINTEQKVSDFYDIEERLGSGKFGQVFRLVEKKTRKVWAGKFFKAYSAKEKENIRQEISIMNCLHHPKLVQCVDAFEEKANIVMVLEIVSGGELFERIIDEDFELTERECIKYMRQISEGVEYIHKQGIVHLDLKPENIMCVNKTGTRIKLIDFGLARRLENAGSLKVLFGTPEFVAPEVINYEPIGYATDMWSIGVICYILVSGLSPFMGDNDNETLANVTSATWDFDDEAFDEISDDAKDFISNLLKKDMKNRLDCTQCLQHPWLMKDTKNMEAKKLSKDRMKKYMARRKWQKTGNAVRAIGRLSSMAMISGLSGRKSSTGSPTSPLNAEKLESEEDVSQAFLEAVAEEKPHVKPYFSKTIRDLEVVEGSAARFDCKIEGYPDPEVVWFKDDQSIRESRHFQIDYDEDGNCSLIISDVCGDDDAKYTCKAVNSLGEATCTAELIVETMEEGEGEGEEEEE

[27] = target: Mitogen-activated protein kinase 11 (Homo sapiens) (UniProt Q15759); details: Compound concentration 1000.0 nM
[28] = system: Phosphatidylinositol 4,5-bisphosphate 3-kinase catalytic subunit alpha isoform (Homo sapiens), P42336 [I800L]; details: Compound concentration 1000.0 nM
Chain of Phosphatidylinositol 4,5-bisphosphate 3-kinase catalytic subunit alpha isoform (Homo sapiens), P42336 [I800L] (P42336 whole entry I800L, canonical isoform): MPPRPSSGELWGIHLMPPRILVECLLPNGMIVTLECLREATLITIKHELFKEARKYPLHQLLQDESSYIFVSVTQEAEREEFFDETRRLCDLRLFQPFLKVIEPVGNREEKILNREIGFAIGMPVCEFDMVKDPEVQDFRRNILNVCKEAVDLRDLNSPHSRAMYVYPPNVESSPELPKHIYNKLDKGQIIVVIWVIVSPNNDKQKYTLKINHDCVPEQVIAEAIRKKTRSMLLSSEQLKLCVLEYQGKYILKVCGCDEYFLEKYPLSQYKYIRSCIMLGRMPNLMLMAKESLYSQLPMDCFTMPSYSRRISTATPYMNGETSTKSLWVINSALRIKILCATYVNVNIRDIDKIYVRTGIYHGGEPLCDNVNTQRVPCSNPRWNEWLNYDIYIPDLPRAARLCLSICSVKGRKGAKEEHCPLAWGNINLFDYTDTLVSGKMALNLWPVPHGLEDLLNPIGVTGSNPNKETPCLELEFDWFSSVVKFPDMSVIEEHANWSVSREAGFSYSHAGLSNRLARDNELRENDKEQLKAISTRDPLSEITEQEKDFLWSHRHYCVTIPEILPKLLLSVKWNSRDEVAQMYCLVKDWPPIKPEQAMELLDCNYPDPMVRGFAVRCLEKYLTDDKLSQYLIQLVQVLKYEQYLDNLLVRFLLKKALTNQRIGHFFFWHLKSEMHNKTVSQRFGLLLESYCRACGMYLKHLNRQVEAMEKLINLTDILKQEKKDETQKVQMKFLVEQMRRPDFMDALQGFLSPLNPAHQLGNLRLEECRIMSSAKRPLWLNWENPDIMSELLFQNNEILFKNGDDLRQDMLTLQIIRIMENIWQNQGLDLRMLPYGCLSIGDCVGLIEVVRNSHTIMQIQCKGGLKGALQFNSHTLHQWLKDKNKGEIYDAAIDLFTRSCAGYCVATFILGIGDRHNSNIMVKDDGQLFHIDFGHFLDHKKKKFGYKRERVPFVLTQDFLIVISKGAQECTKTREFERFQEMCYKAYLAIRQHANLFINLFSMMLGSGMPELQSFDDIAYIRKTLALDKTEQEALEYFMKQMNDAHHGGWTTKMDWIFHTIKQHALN

[29] = target: Phosphatidylinositol 4-phosphate 5-kinase type-1 alpha (Homo sapiens) (UniProt Q99755); details: Compound concentration 1000.0 nM
[30] = target: Serine/threonine-protein kinase D3 (Homo sapiens) (UniProt O94806); details: Compound concentration 1000.0 nM
[31] = target: Receptor-interacting serine/threonine-protein kinase 4 (Homo sapiens) (UniProt P57078); details: Compound concentration 1000.0 nM
[32] = target: Rho-associated protein kinase 2 (Homo sapiens) (UniProt O75116); details: Compound concentration 1000.0 nM
[33] = target: Proto-oncogene tyrosine-protein kinase ROS (Homo sapiens) (UniProt P08922); details: Compound concentration 1000.0 nM
[34] = target: Ribosomal protein S6 kinase alpha-2 (Homo sapiens) (UniProt Q15349); details: Compound concentration 1000.0 nM
[35] = target: Ribosomal protein S6 kinase alpha-6 (Homo sapiens) (UniProt Q9UK32); details: Compound concentration 1000.0 nM
[36] = target: Serine/threonine-protein kinase Sgk1 (Homo sapiens) (UniProt O00141); details: Compound concentration 1000.0 nM
[37] = target: Tyrosine-protein kinase Srms (Homo sapiens) (UniProt Q9H3Y6); details: Compound concentration 1000.0 nM
[38] = target: SRSF protein kinase 2 (Homo sapiens) (UniProt P78362); details: Compound concentration 1000.0 nM
[39] = target: Serine/threonine-protein kinase TAO1 (Homo sapiens) (UniProt Q7L7X3); details: Compound concentration 1000.0 nM
[40] = target: Tyrosine-protein kinase receptor TYRO3 (Homo sapiens) (UniProt Q06418); details: Compound concentration 1000.0 nM
[41] = target: Serine/threonine-protein kinase 32B (Homo sapiens) (UniProt Q9NY57); details: Compound concentration 1000.0 nM
[42] = target: 5-hydroxytryptamine receptor 1D (Homo sapiens) (UniProt P28221); details: Compound concentration 10.0 uM
[43] = target: 5-hydroxytryptamine receptor 5A (Homo sapiens) (UniProt P47898); details: Compound concentration 10.0 uM
Chain of 5-hydroxytryptamine receptor 5A (Homo sapiens) (P47898 whole entry): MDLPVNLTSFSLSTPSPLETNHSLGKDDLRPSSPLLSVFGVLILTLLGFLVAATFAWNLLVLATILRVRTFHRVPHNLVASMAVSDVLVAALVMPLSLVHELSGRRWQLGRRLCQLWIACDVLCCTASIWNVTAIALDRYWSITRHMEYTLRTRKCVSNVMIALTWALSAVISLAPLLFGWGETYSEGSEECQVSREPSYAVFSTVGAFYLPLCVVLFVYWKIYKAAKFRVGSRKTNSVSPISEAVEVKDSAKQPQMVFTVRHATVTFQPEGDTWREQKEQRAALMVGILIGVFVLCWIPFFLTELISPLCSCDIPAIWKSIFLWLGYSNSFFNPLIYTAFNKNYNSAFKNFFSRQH

[44] = target: Sodium-dependent noradrenaline transporter (Homo sapiens) (UniProt P23975); details: Compound concentration 10.0 uM
Chain of Sodium-dependent noradrenaline transporter (Homo sapiens) (P23975 whole entry): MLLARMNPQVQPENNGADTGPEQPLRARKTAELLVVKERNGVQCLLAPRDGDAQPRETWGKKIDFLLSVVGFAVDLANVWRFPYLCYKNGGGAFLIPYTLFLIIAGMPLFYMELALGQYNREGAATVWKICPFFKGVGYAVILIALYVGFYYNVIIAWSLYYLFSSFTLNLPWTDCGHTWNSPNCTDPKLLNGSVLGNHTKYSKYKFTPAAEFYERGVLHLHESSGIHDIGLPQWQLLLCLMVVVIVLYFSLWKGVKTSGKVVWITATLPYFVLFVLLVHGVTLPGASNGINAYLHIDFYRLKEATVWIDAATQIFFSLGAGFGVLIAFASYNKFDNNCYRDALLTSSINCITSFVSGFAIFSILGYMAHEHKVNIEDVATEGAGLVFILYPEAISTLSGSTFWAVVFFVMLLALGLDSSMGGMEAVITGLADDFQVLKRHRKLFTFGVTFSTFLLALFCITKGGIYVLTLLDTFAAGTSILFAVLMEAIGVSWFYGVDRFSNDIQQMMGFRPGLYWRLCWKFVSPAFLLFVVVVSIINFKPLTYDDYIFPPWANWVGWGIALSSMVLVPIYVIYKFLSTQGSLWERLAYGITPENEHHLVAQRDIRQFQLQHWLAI

[45] = target: Histamine H3 receptor (Homo sapiens) (UniProt Q9Y5N1); details: Compound concentration 10.0 uM

With `O=C(O)[C@@H]1[C@@H](Cn2nnc3ccccc3c2=O)CC[C@H]1C(=O)c1ccc(OCCC2CCOCC2)cc1` [BAY-694] the residual activity [1] was 100%, the residual activity [2] was 100% and the residual activity [3] was 100%. For the same compound, the residual activity [4] was 99%, the residual activity [5] was 86% and the residual activity [6] was 91%. For the same compound, the residual activity [7] was 100%, the residual activity [8] was 99% and the residual activity [9] was 100%. For the same compound, the residual activity [10] was 100%, the residual activity [11] was 100% and the residual activity [12] was 100%. It also gave a residual activity [13] of 100%, a residual activity [14] of 100% and a residual activity [15] of 100%. For the same compound, the residual activity [16] was 100%, the residual activity [17] was 100% and the residual activity [18] was 100%. The residual activity [19] was 93%, the residual activity [20] was 100% and the residual activity [21] was 100%. The residual activity [22] was 100%, the residual activity [23] was 100% and the residual activity [24] was 100%. It also gave a residual activity [25] of 98%, a residual activity [26] of 100% and a residual activity [27] of 99%. For the same compound, the residual activity [28] was 34%, the residual activity [29] was 94% and the residual activity [30] was 100%. For the same compound, the residual activity [31] was 81%, the residual activity [32] was 100% and the residual activity [33] was 95%. It also gave a residual activity [34] of 100%, a residual activity [35] of 100% and a residual activity [36] of 74%. It also gave a residual activity [37] of 100%, a residual activity [38] of 100% and a residual activity [39] of 100%. The residual activity [40] was 100%, the residual activity [41] was 100% and the inhibition [42] was 14%. It also gave an inhibition [43] of 1.33%, an inhibition [44] of -7.25% and an inhibition [45] of 4.06%.
With `O=C(O)[C@H]1[C@H](Cn2nnc3ccccc3c2=O)CC[C@@H]1C(=O)c1ccc(OCCC2CCOCC2)cc1` [BAY-7598] the residual activity [1] was 79%, the residual activity [2] was 100% and the residual activity [3] was 90%. For the same compound, the residual activity [4] was 88%, the residual activity [5] was 96% and the residual activity [6] was 100%. It also gave a residual activity [7] of 100%, a residual activity [8] of 94% and a residual activity [9] of 87%. The residual activity [10] was 100%, the residual activity [11] was 96% and the residual activity [12] was 87%. The residual activity [13] was 97%, the residual activity [14] was 70% and the residual activity [15] was 81%. It also gave a residual activity [16] of 100%, a residual activity [17] of 100% and a residual activity [18] of 100%. It also gave a residual activity [19] of 91%, a residual activity [20] of 99% and a residual activity [21] of 100%. The residual activity [22] was 97%, the residual activity [23] was 100% and the residual activity [24] was 100%. For the same compound, the residual activity [25] was 100%, the residual activity [26] was 74% and the residual activity [27] was 78%. For the same compound, the residual activity [28] was 73%, the residual activity [29] was 88% and the residual activity [30] was 88%. For the same compound, the residual activity [31] was 80%, the residual activity [32] was 80% and the residual activity [33] was 95%. The residual activity [34] was 78%, the residual activity [35] was 97% and the residual activity [36] was 100%. For the same compound, the residual activity [37] was 100%, the residual activity [38] was 100% and the residual activity [39] was 100%. The residual activity [40] was 100%, the residual activity [41] was 100% and the inhibition [42] was 4.82%. The inhibition [43] was 6.91%, the inhibition [44] was -0.42% and the inhibition [45] was -2.95%.

Reference: ChEMBL document CHEMBL4507264, “Data for DCP probe BAY-7598” (2021)
